# System: NCI-H460
# Experiment: Antitumor activity against human NCI-H460 cells assessed as inhibition of cell growth by MTT assay
# Type: functional, cell-based
# Conditions: not given
row,IC50 [µM],Compound
1,> 10,COc1ccc2c(c1)OC[C@H]1c3ccc(O)cc3O[C@@H]21
2,4.3,CC1(C)C=Cc2cc3c(cc2O1)OC[C@H]1c2ccc(OCCN4CCNCC4)cc2O[C@@H]31
3,> 10,CC1(C)C=Cc2c(ccc3c2OC[C@H]2c4ccccc4O[C@@H]32)O1
4,> 10,CC1(C)C=Cc2c(ccc3c2OC[C@H]2c4ccc([N+](=O)[O-])cc4O[C@@H]32)O1
5,> 10,CC1(C)C=Cc2c(ccc3c2OC[C@H]2c4ccc(OCCN5CCOCC5)cc4O[C@@H]32)O1
6,> 10,CC1(C)C=Cc2cc3c(cc2O1)OC[C@H]1c2ccccc2O[C@@H]31
7,> 10,CC1(C)C=Cc2cc3c(cc2O1)OC[C@H]1c2ccc(NS(C)(=O)=O)cc2O[C@@H]31
8,> 10,CC1(C)C=Cc2c(ccc3c2OC[C@H]2c4ccc(NS(C)(=O)=O)cc4O[C@@H]32)O1
9,> 10,COc1ccc2c(c1)O[C@H]1c3ccc4c(c3OC[C@@H]21)C=CC(C)(C)O4
10,4.2,CN1CCN(CCOc2ccc3c(c2)O[C@H]2c4ccc5c(c4OC[C@@H]32)C=CC(C)(C)O5)CC1
11,> 10,CC1(C)C=Cc2cc3c(cc2O1)OC[C@H]1c2ccc(N)cc2O[C@@H]31
12,> 10,CC(=O)Nc1ccc2c(c1)O[C@H]1c3cc4c(cc3OC[C@@H]21)OC(C)(C)C=C4

# System: MDA-MB-231
# Experiment: Antitumor activity against human MDA-MB-231 cells assessed as inhibition of cell growth by MTT assay
# Type: functional, cell-based
# Conditions: not given
row,IC50 [µM],Compound
1,> 10,COc1ccc2c(c1)OC[C@H]1c3ccc(O)cc3O[C@@H]21
2,6.7,CC1(C)C=Cc2cc3c(cc2O1)OC[C@H]1c2ccc(OCCN4CCNCC4)cc2O[C@@H]31
3,> 10,CC1(C)C=Cc2c(ccc3c2OC[C@H]2c4ccccc4O[C@@H]32)O1
4,> 10,CC1(C)C=Cc2c(ccc3c2OC[C@H]2c4ccc([N+](=O)[O-])cc4O[C@@H]32)O1
5,> 10,CC1(C)C=Cc2c(ccc3c2OC[C@H]2c4ccc(OCCN5CCOCC5)cc4O[C@@H]32)O1
6,> 10,CC1(C)C=Cc2cc3c(cc2O1)OC[C@H]1c2ccccc2O[C@@H]31
7,> 10,CC1(C)C=Cc2cc3c(cc2O1)OC[C@H]1c2ccc(NS(C)(=O)=O)cc2O[C@@H]31
8,> 10,CC1(C)C=Cc2c(ccc3c2OC[C@H]2c4ccc(NS(C)(=O)=O)cc4O[C@@H]32)O1
9,> 10,COc1ccc2c(c1)O[C@H]1c3ccc4c(c3OC[C@@H]21)C=CC(C)(C)O4
10,> 10,CN1CCN(CCOc2ccc3c(c2)O[C@H]2c4ccc5c(c4OC[C@@H]32)C=CC(C)(C)O5)CC1
11,> 10,CC1(C)C=Cc2cc3c(cc2O1)OC[C@H]1c2ccc(N)cc2O[C@@H]31
12,> 10,CC(=O)Nc1ccc2c(c1)O[C@H]1c3cc4c(cc3OC[C@@H]21)OC(C)(C)C=C4

# System: NCI-H1299
# Experiment: Antitumor activity against human NCI-H1299 cells assessed as inhibition of cell growth by MTT assay
# Type: functional, cell-based
# Conditions: not given
row,IC50 [µM],Compound
1,> 10,COc1ccc2c(c1)OC[C@H]1c3ccc(O)cc3O[C@@H]21
2,8.3,CC1(C)C=Cc2cc3c(cc2O1)OC[C@H]1c2ccc(OCCN4CCNCC4)cc2O[C@@H]31
3,> 10,CC1(C)C=Cc2c(ccc3c2OC[C@H]2c4ccccc4O[C@@H]32)O1
4,> 10,CC1(C)C=Cc2c(ccc3c2OC[C@H]2c4ccc([N+](=O)[O-])cc4O[C@@H]32)O1
5,> 10,CC1(C)C=Cc2c(ccc3c2OC[C@H]2c4ccc(OCCN5CCOCC5)cc4O[C@@H]32)O1
6,> 10,CC1(C)C=Cc2cc3c(cc2O1)OC[C@H]1c2ccccc2O[C@@H]31
7,> 10,CC1(C)C=Cc2cc3c(cc2O1)OC[C@H]1c2ccc(NS(C)(=O)=O)cc2O[C@@H]31
8,> 10,CC1(C)C=Cc2c(ccc3c2OC[C@H]2c4ccc(NS(C)(=O)=O)cc4O[C@@H]32)O1
9,> 10,COc1ccc2c(c1)O[C@H]1c3ccc4c(c3OC[C@@H]21)C=CC(C)(C)O4
10,6.6,CN1CCN(CCOc2ccc3c(c2)O[C@H]2c4ccc5c(c4OC[C@@H]32)C=CC(C)(C)O5)CC1
11,> 10,CC1(C)C=Cc2cc3c(cc2O1)OC[C@H]1c2ccc(N)cc2O[C@@H]31
12,> 10,CC(=O)Nc1ccc2c(c1)O[C@H]1c3cc4c(cc3OC[C@@H]21)OC(C)(C)C=C4

# System: Hep 3B2
# Experiment: Antitumor activity against human Hep3B cells assessed as inhibition of cell growth by MTT assay
# Type: functional, cell-based
# Conditions: not given
row,Compound,IC50 [µM]
1,COc1ccc2c(c1)OC[C@H]1c3ccc(O)cc3O[C@@H]21,> 10
2,CC1(C)C=Cc2cc3c(cc2O1)OC[C@H]1c2ccc(OCCN4CCNCC4)cc2O[C@@H]31,> 10
3,CC1(C)C=Cc2c(ccc3c2OC[C@H]2c4ccccc4O[C@@H]32)O1,> 10
4,CC1(C)C=Cc2c(ccc3c2OC[C@H]2c4ccc([N+](=O)[O-])cc4O[C@@H]32)O1,> 10
5,CC1(C)C=Cc2c(ccc3c2OC[C@H]2c4ccc(OCCN5CCOCC5)cc4O[C@@H]32)O1,> 10
6,CC1(C)C=Cc2cc3c(cc2O1)OC[C@H]1c2ccccc2O[C@@H]31,> 10
7,CC1(C)C=Cc2cc3c(cc2O1)OC[C@H]1c2ccc(NS(C)(=O)=O)cc2O[C@@H]31,> 10
8,CC1(C)C=Cc2c(ccc3c2OC[C@H]2c4ccc(NS(C)(=O)=O)cc4O[C@@H]32)O1,> 10
9,COc1ccc2c(c1)O[C@H]1c3ccc4c(c3OC[C@@H]21)C=CC(C)(C)O4,> 10
10,CN1CCN(CCOc2ccc3c(c2)O[C@H]2c4ccc5c(c4OC[C@@H]32)C=CC(C)(C)O5)CC1,> 10
11,CC1(C)C=Cc2cc3c(cc2O1)OC[C@H]1c2ccc(N)cc2O[C@@H]31,> 10
12,CC(=O)Nc1ccc2c(c1)O[C@H]1c3cc4c(cc3OC[C@@H]21)OC(C)(C)C=C4,> 10

# System: not listed separately
# Experiment: Cytotoxicity against human RPE cells assessed as reduction in cell viability at 10 uM relative to control
# Type: toxicity, cell-based
# Conditions: not given
row,Compound,Activity [%]
1,CC1(C)C=Cc2cc3c(cc2O1)OC[C@H]1c2ccc(OCCN4CCNCC4)cc2O[C@@H]31,> 70
2,CN1CCN(CCOc2ccc3c(c2)O[C@H]2c4ccc5c(c4OC[C@@H]32)C=CC(C)(C)O5)CC1,> 70

# System: not listed separately
# Experiment: Cytotoxicity against human RPE cells assessed as reduction in cell viability at 50 uM relative to control
# Type: toxicity, cell-based
# Conditions: not given
row,Compound,Activity
1,CC1(C)C=Cc2cc3c(cc2O1)OC[C@H]1c2ccc(OCCN4CCNCC4)cc2O[C@@H]31,Non-Toxic
2,CN1CCN(CCOc2ccc3c(c2)O[C@H]2c4ccc5c(c4OC[C@@H]32)C=CC(C)(C)O5)CC1,Non-Toxic

# System: HT-22
# Experiment: Cytotoxicity against mouse HT-22 cells assessed as reduction in cell viability at 50 uM relative to control
# Type: toxicity, cell-based
# Conditions: ht-22, 50 µM
row,Compound,Activity
1,CC1(C)C=Cc2cc3c(cc2O1)OC[C@H]1c2ccc(OCCN4CCNCC4)cc2O[C@@H]31,Toxic
2,CN1CCN(CCOc2ccc3c(c2)O[C@H]2c4ccc5c(c4OC[C@@H]32)C=CC(C)(C)O5)CC1,Toxic

# System: A549
# Experiment: Antitumor activity against human A549 cells assessed as inhibition of cell growth by MTT assay
# Type: functional, cell-based
# Conditions: not given
row,IC50 [µM],Compound
1,> 10,COc1ccc2c(c1)OC[C@H]1c3ccc(O)cc3O[C@@H]21
2,6.7,CC1(C)C=Cc2cc3c(cc2O1)OC[C@H]1c2ccc(OCCN4CCNCC4)cc2O[C@@H]31
3,> 10,CC1(C)C=Cc2c(ccc3c2OC[C@H]2c4ccccc4O[C@@H]32)O1
4,> 10,CC1(C)C=Cc2c(ccc3c2OC[C@H]2c4ccc([N+](=O)[O-])cc4O[C@@H]32)O1
5,> 10,CC1(C)C=Cc2c(ccc3c2OC[C@H]2c4ccc(OCCN5CCOCC5)cc4O[C@@H]32)O1
6,> 10,CC1(C)C=Cc2cc3c(cc2O1)OC[C@H]1c2ccccc2O[C@@H]31
7,> 10,CC1(C)C=Cc2cc3c(cc2O1)OC[C@H]1c2ccc(NS(C)(=O)=O)cc2O[C@@H]31
8,> 10,CC1(C)C=Cc2c(ccc3c2OC[C@H]2c4ccc(NS(C)(=O)=O)cc4O[C@@H]32)O1
9,> 10,COc1ccc2c(c1)O[C@H]1c3ccc4c(c3OC[C@@H]21)C=CC(C)(C)O4
10,6.5,CN1CCN(CCOc2ccc3c(c2)O[C@H]2c4ccc5c(c4OC[C@@H]32)C=CC(C)(C)O5)CC1
11,> 10,CC1(C)C=Cc2cc3c(cc2O1)OC[C@H]1c2ccc(N)cc2O[C@@H]31
12,> 10,CC(=O)Nc1ccc2c(c1)O[C@H]1c3cc4c(cc3OC[C@@H]21)OC(C)(C)C=C4

# System: HCT-116
# Experiment: Antitumor activity against human HCT-116 cells assessed as inhibition of cell growth by MTT assay
# Type: functional, cell-based
# Conditions: not given
row,IC50 [µM],Compound
1,> 10,COc1ccc2c(c1)OC[C@H]1c3ccc(O)cc3O[C@@H]21
2,4.4,CC1(C)C=Cc2cc3c(cc2O1)OC[C@H]1c2ccc(OCCN4CCNCC4)cc2O[C@@H]31
3,> 10,CC1(C)C=Cc2c(ccc3c2OC[C@H]2c4ccccc4O[C@@H]32)O1
4,> 10,CC1(C)C=Cc2c(ccc3c2OC[C@H]2c4ccc([N+](=O)[O-])cc4O[C@@H]32)O1
5,> 10,CC1(C)C=Cc2c(ccc3c2OC[C@H]2c4ccc(OCCN5CCOCC5)cc4O[C@@H]32)O1
6,> 10,CC1(C)C=Cc2cc3c(cc2O1)OC[C@H]1c2ccccc2O[C@@H]31
7,> 10,CC1(C)C=Cc2cc3c(cc2O1)OC[C@H]1c2ccc(NS(C)(=O)=O)cc2O[C@@H]31
8,> 10,CC1(C)C=Cc2c(ccc3c2OC[C@H]2c4ccc(NS(C)(=O)=O)cc4O[C@@H]32)O1
9,> 10,COc1ccc2c(c1)O[C@H]1c3ccc4c(c3OC[C@@H]21)C=CC(C)(C)O4
10,5.2,CN1CCN(CCOc2ccc3c(c2)O[C@H]2c4ccc5c(c4OC[C@@H]32)C=CC(C)(C)O5)CC1
11,> 10,CC1(C)C=Cc2cc3c(cc2O1)OC[C@H]1c2ccc(N)cc2O[C@@H]31
12,> 10,CC(=O)Nc1ccc2c(c1)O[C@H]1c3cc4c(cc3OC[C@@H]21)OC(C)(C)C=C4

# System: HT-22
# Experiment: Cytotoxicity against mouse HT-22 cells assessed as reduction in cell viability at 10 uM relative to control
# Type: toxicity, cell-based
# Conditions: ht-22, 10 µM
row,Compound,Activity [%]
1,CC1(C)C=Cc2cc3c(cc2O1)OC[C@H]1c2ccc(OCCN4CCNCC4)cc2O[C@@H]31,> 70
2,CN1CCN(CCOc2ccc3c(c2)O[C@H]2c4ccc5c(c4OC[C@@H]32)C=CC(C)(C)O5)CC1,> 70

# Reference: ChEMBL document CHEMBL5321248, “Syntheses and antitumor activities of neorautenol and shinpterocarpin analogs” (Bioorg Med Chem Lett, 2023)
